Like-named read-outs stand apart in the source and are kept apart here.
Columns and labels:
[1] = test system: MCF7 breast cancer cell line; test: MTT assay, 48 h continuous drug exposure, MCF7; format: cell-based, human
Method: (§1) Some of the C8-linked diaryl ether-PBD hybrids have been tested against eleven human tumour cell lines derived from seven cancer types (lung cancer, colon cancer, cervix, ovarian cancer, oral cancer, prostate cancer and breast cancer) as per Tata protocol as shown in Table 2. For each compound, dose response curves for each cell line were measured at a minimum of five concentrations at 10 fold dilutions. A protocol of 48 h continuous drug exposure was used and a MTT assay was used to estimate cell viability or growth. The percent of cell growth (GI50) compared with the control was calculated. Some of the compounds have been evaluated for their in vitro cytotoxicity in eleven cell lines from seven human cancer types. The results are expressed as GI50 determined relative to that of untreated control cells (Table-2).

[2] = test system: A549 lung cancer cell line; test: MTT assay, 48 h continuous drug exposure, A549; format: cell-based, human
Method: as §1

[3] = test system: duplex-form calf thymus DNA (CT-DNA); test: Thermal denaturation studies with calf thymus DNA (DNA binding affinity); conditions: [PBD]:[DNA] molar ratio 1:5, CT-DNA 100 μM, ligand 20 μM, sodium phosphate buffer pH 7.00; for (ΔTm ° C.) after incubation at 37° C. for 0 h: 0 h at 37° C.; for (ΔTm ° C.) after incubation at 37° C. for 18 h: 18 h at 37° C.
Method: DNA Binding Affinity of Diaryl Ether Linked PBD Hybrids: Compounds have been subjected to thermal denaturation studies with duplex-form calf thymus DNA (CT-DNA) using a modification of a reported procedure (Newman, M. S. Carcinog-compr. Surv. 1976, 1, 203; ([…].; Loy, M.; Hoffman, Carcinog-compr. […] The DNA-PBD solutions have been incubated at 37° C. for 0 and 18 h prior to analysis. […] DNA helix→coil transition temperatures (Tm) have been obtained from the maxima in the d(A260)/dT derivative plots. […] The DNA binding activity for these novel C8-linked diaryl ether PBD hybrids has been examined by thermal denaturation studies using calf thymus (CT) DNA. […] The data for the compounds are included in Table 1 for comparison.

[4] = test system: Gurav oral cancer cell line; test: MTT assay, 48 h continuous drug exposure, Gurav; format: cell-based, human; conditions: read-out: GI50 Gurav
Method: (§2) For each compound, dose response curves for each cell line were measured at a minimum of five concentrations at 10 fold dilutions. A protocol of 48 h continuous drug exposure was used and a MTT assay was used to estimate cell viability or growth. The percent of cell growth (GI50) compared with the control was calculated.

[5] = test system: Colo205 colon cancer cell line; test: MTT assay, 48 h continuous drug exposure, Colo205; format: cell-based, human
Method: as §1

[6] = test system: SiHa Cervix cancer cell line; test: MTT assay, 48 h continuous drug exposure, SiHa; format: cell-based, human; conditions: read-out: GI50 SiHa
Method: as §2

[7] = test system: DWD oral cancer cell line; test: MTT assay, 48 h continuous drug exposure, DWD; format: cell-based, human; conditions: read-out: GI50 DWD
Method: as §2

[8] = test system: A2780 ovarian cancer cell line; test: MTT assay, 48 h continuous drug exposure, A2780; format: cell-based, human; conditions: read-out: GI50 A2780
Method: as §2

[9] = test system: PC3 prostrate cancer cell line; test: MTT assay, 48 h continuous drug exposure, PC3; format: cell-based, human; conditions: read-out: GI50 PC3
Method: as §2

[10] = test system: Hop62 lung cancer cell line; test: MTT assay, 48 h continuous drug exposure, Hop62; format: cell-based, human; conditions: read-out: GI50 Hop62
Method: as §2

[11] = test system: ZR-751 breast cancer cell line; test: MTT assay, 48 h continuous drug exposure, ZR-751; format: cell-based, human; conditions: read-out: GI50 ZR-751
Method: as §2

[12] = oral cancer cell line, 48 h exposure, MTT
[13] = Cervix cancer cell line, 48 h exposure, MTT
[14] = ovarian cancer cell line, 48 h exposure, MTT
[15] = prostrate cancer cell line, 48 h exposure, MTT
[16] = lung cancer cell line, 48 h exposure, MTT
[17] = breast cancer cell line, 48 h exposure, MTT

SMILES | GI50 ([1]; 48 h exposure) [nM] | GI50 ([2]; 48 h exposure) [nM] | (ΔTm ° C.) after incubation at 37° C. for 0 h [3] [°C] | (ΔTm ° C.) after incubation at 37° C. for 18 h [3] [°C] | GI50 [4, 12] [nM] | GI50 ([5]; 48 h exposure) [nM] | GI50 [6, 13] [nM] | GI50 [7, 12] [nM] | GI50 [8, 14] [nM] | GI50 [9, 15] [nM] | GI50 [10, 16] [nM] | GI50 [11, 17] [nM] | further results
COc1cc2c(cc1OCCCCCOc1ccc(Oc3cc(OC)c(OC)c(OC)c3)c([N+](=O)[O-])c1)N=C[C@@H]1CCCN1C2=O [21c, 7-Methoxy-(8-3-[4-(3,4,5-timethoxyphenoxy)-3-nitrophenoxy]pentyloxy)-(11aS)-1,2,3,11a-tetrahydro-5H-pyrrolo[2,1-c][1,4]benzodiazepin-5-one] | 1850 | 2500 | 3.9 | 5.1 | 2860 | 2510 | 1260 | 2130 | 1560 | 1580 | 3100 | 1600 | –
COc1cc2c(cc1OCCCCCOc1cccc(Oc3cc(OC)c(OC)c(OC)c3)c1[N+](=O)[O-])N=C[C@@H]1CCCN1C2=O [21g, 7-Methoxy-(8-3-[3-(3,4,5-trimethoxyphenoxy)-2-nitrophenoxy]pentyloxy)-(11aS)-1,2,3,11a-tetrahydro-5H-pyrrolo[2,1-c][1,4]benzodiazepin-5-one] | 2300 | 2020 | 4.9 | 6.2 | 160 | 170 | 2210 | 170 | 2100 | 190 | 2130 | 180 | –
COc1ccc(Oc2ccc(C(=O)N3CCN(CCCCCOc4cc5c(cc4OC)C(=O)N4CCC[C@H]4C=N5)CC3)cc2N)cc1 [22c] | 170 | 180 | 3.1 | 4.2 | 160 | 170 | 3250 | 180 | 190 | 190 | 2300 | 190 | –
COc1ccc(Oc2ccc(C(=O)N3CCN(CCCCCOc4cc5c(cc4OC)C(=O)N4CCC[C@H]4C=N5)CC3)cc2N)cc1OC [23c] | 150 | 180 | 3.6 | 4.5 | 120 | 160 | 2470 | 150 | 180 | 170 | 2280 | 190 | –
COc1cc2c(cc1OCCCCCN1CCN(C(=O)c3ccc(Oc4cc(OC)c(OC)c(OC)c4)c(N)c3)CC1)N=C[C@@H]1CCCN1C2=O [24c] | 170 | 170 | 4.5 | 6.0 | 150 | 540 | 2500 | 160 | 2000 | 170 | 2260 | 180 | –
COc1ccc(Oc2ccc(C(=O)N3CCN(CCCCCOc4cc5c(cc4OC)C(=O)N4CCC[C@H]4C=N5)CC3)cc2[N+](=O)[O-])cc1 [31c] | 180 | 170 | 3.9 | 5.6 | 160 | 170 | 3880 | 180 | 190 | 170 | 190 | 180 | –
COc1ccc(Oc2ccc(C(=O)N3CCN(CCCCCOc4cc5c(cc4OC)C(=O)N4CCC[C@H]4C=N5)CC3)cc2[N+](=O)[O-])cc1OC [32c] | 170 | 140 | 4.8 | 7.3 | 120 | 160 | 1850 | 140 | 150 | 190 | 180 | 150 | –
COc1cc2c(cc1OCCCCCN1CCN(C(=O)c3ccc(Oc4cc(OC)c(OC)c(OC)c4)c([N+](=O)[O-])c3)CC1)N=C[C@@H]1CCCN1C2=O [33c] | 180 | 2240 | 4.2 | 6.1 | 170 | 150 | 2250 | 2100 | 2300 | 2150 | 2670 | 2200 | –
C1=CC2=CN=c3ccccc3=CN2C1 [DC-81, pyrrolo[2,1-c][1,4]benzodiazepine, reference compound] | – | – | 0.3 | 0.7 | – | – | – | – | – | – | – | – | GI50 ([1]; Homo sapiens, MCF7, 48 h exposure): 170 nM; GI50 ([2]; Homo sapiens, A549, 48 h exposure): 160 nM; GI50 ([4]; Homo sapiens, Gurav, 48 h): 1490 nM; GI50 ([5]; Homo sapiens, COLO 205, 48 h exposure): 110 nM; GI50 ([6]; Homo sapiens, SiHa, 48 h): 140 nM; GI50 ([7]; Homo sapiens, 48 h): 200 nM; GI50 ([8]; Homo sapiens, A2780, 48 h): 150 nM; GI50 ([9]; Homo sapiens, 48 h): 170 nM; GI50 ([10]; Homo sapiens, HOP-62, 48 h): 170 nM; GI50 ([11]; Homo sapiens, ZR-75-1, 48 h): 160 nM

— US8809321B2, “Diaryl ether linked pyrrolo [2,1-c][1,4] benzodiazepine hybrids and process for the preparation thereof” (Council of Scientific and Industrial Research, priority 2011, dated 2014)
